Results: patent US20130156845A1, “LIPID FORMULATED SINGLE STRANDED RNA” (ALNYLAM PHARMACEUTICALS, INC., priority 2010, published 2013)
Like-named read-outs stand apart in the source and are kept apart here. Strand notation (5' to 3'): a small letter for the sugar, then the base; units joined by * are phosphorothioate-linked, units joined directly phosphodiester-linked; [ ] holds rarer units or linkages, { } end groups; capitals alone tell only the bases. {PS2} = PS2 group (structure drawn in the publication); {PS} = PS group (structure drawn in the publication); e = 2'-O-(2-methoxyethyl) (MOE); m = 2'-O-methyl; {P} = phosphate; f = 2'-fluoro

Tests used:
PTEN [1] = test: In vivo evaluation of ssRNA formulated in lipid particle LNP06, liver PTEN mRNA (Example 77); design: species or system mouse; conditions: ssRNA formulated in LNP06, 4.5 mg/kg tail vein, C57BL/6 mice, liver PTEN mRNA normalized to GAPDH, 2 days post injection
Experimental: In accordance with the present disclosure, oligomeric compounds were synthesized and tested for their ability to reduce PTEN. C57BL/6 mice (Charles River Labs, MA) received either saline or LNP formulated single stranded RNA via tail vein injection at a volume of 0.01 mL/g and the single stranded RNA dose is 4.5 mg/kg. 25 groups of female mice and 9 modified ssRNAs targeting PTEN were formulated in LNP06 and tested. To determine liver mRNA levels of PTEN, 2 days post injection, animals were sacrificed and livers were harvested and snap frozen in liquid nitrogen. Liver lysates were prepared from the frozen tissues and liver mRNA levels of PTEN normalized to GAPDH were quantified using a branched DNA assay (QuantiGene Assay, Panomics, Calif.).

PTEN [2] = test: PTEN mRNA reduction in HeLa cells, dose response (Example 72); format: cell-based, human; conditions: percent inhibition of PTEN mRNA, 0.167-50 nM
Experimental: In accordance with the present disclosure, oligomeric compounds were synthesized and tested for their ability to reduce PTEN expression over a range of doses. Human HeLa cells were treated with the following oligomeric compounds. A dose comparison was evaluated with dose concentrations of 0.167, 0.5, 1.5, 5, 15 and 50 nM using methods described herein. Expression levels of PTEN were determined using real-time PCR and normalized to RIBOGREEN™ using methods described herein. The percent inhibition of PTEN mRNA was determined and the resulting dose-response curves were used to determine the IC50. The IC50s are listed below.

human PTEN = test: PTEN expression in HeLa cells, ssRNAs vs siRNAs (Example 62); format: cell-based
Experimental: A series of 5′ and 2′ bis-substituted modified oligomeric compounds were prepared as single strand RNAs (ssRNAs). The antisense (AS) strands listed below were designed to target human PTEN, and each was also assayed as part of a duplex with the same sense strand (ISIS 341401, shown below) for their ability to reduce PTEN expression levels. HeLa cells were treated with the single stranded or double stranded oligomeric compounds created with the antisense compounds shown below using methods described herein. The IC50's were calculated using the linear regression equation generated by plotting the normalized mRNA levels to the log of the concentrations used.

[3] = ssRNA stability in hepatocyte cell homogenate assay (Example 65); format: in vitro ADME; conditions: mouse hepatocyte homogenate, LC-MS
Experimental: Hepatocytes were harvested from bal/c mice in ice-cold hepatocyte wash media (William E Media) with fetal bovine serum, sedimented by centrifugation at 1000 g for 8 minutes and then washed with hepatocyte wash media. Hepatocytes were homogenized with RIPA buffer (50 mM Tris pH 7.5, 10 mM MgCl2, 150 mM NaCl, 0.5% NP-40 alternative, one tablet of Roche protease inhibitor #11836170001), and centrifuged at 14000 g for 15 minutes at 4° C. and the supernatant was removed and stored in ice. Protein concentration (BSA mg/mL) was determined with Bradford assay and adjusted to a final protein concentration of 2 mg/mL by addition of Ripa buffer volume or cell homogenate volume.
[…] were homogenized in a homogenation buffer (20 mM Tris, pH 8, 20 mM EDTA and 0.1 M NaCl in 0.5% NP-40) at time points 0, 5, 10, 20, 30, 40 and 60 minutes (Exception: 06/408877 at time points 0, 15, 30, 60, 120 and 240 mins, 06/409044, at time points 0, 0.5, 1, 2, 4, 8, and 18 hours). An internal standard (18/355868, a 27-mer, 2′-O-methoxyethyl-modified phosphorothioate oligonucleotide, or 19/116847, a 5-10-5 gappmer, 2′-O-methoxyethyl-modified phosphorothioate oligonucleotide) with concentration at 20 ug/g was added prior to extraction. Tissue samples were extracted with 70 μL of NH4OH and 240 μL of phenol/chloroform/isoamyl alcohol (25:24:1). The supernatant was removed after centrifugation at 14000 rpm for 2 min. The remaining extractant was vortexed with an additional […] of water and the aqueous layer was removed and combined with the supernatant after centrifugation at 14000 rpm for 2 minutes.
Triethylammonium acetate solution at 1M ([…]) was added to the supernatant. The aqueous layer of the mixture was loaded onto the pre-conditioned Biotage™ Phenyl Solid Phase Extraction Plate (SPE plate) after centrifugation at 9000 rpm for 20 minutes. The SPE plate was washed several times with water. The sample was then eluted with 1.5 mL of 1% TEA in 90% MeOH and filtered through the Protein Precipitation Plate (Phenomenex™). The elutent was evaporated to dryness and diluted to 200 μL with 50% quenching buffer (8 M urea, 50 mM EDTA) and water before sample injection.
An Agilent 1100 Series LC/MSD system was connected in-line to a mass spectrometry. Mass spectrometer was operated in the electrospray negative ionization mode. The nebulizer nitrogen gas was set at […] and the drying nitrogen gas was set at 12 L/min. The drying temperature was 325° C. Samples (25 μL/well) were introduced via an auto sampler and reversed-phase chromatography was carried out with an XBridge OST C18 2.5 μm 2.1 mm×50 mm HPLC column using a flow rate of 300 μL/min at 55° C. The ion pair buffers consisted of A: 5 mM tributylammonium acetate (TBAA) in 20% acetonitrile and B: […] TBAA in 90% acetonitrile and the loading buffer was 25 mM TBAA in 25% Acetonitrile. Separation was performed on a 30% to 70% B in 9 min and then 80% B in 11 min gradient.
Quantitative analysis of oligonucleotide and internal standard by extracted ion chromatograms of the most abundant ions was performed using MSD ChemStation software. The results are expressed as half-time (T1/2) in the table below.

PTEN [4] = test: PTEN mRNA reduction in HeLa cells, dose response (Example 64); format: cell-based, human; conditions: real-time PCR, 1.56-50 nM
Experimental: A dose response experiment was performed targeting PTEN in human HeLa cells to determine the effects of placement of sugar and internucleoside linkages within ssRNAs. More specifically, the modified ssRNAs were tested for their ability to reduce PTEN mRNA in cultured cells. The modified ssRNAs are shown below, and contain 2′-OMe and 2′-fluoro modified nucleosides, two 2′-O-MOE modified nucleosides at the 3′-terminus, and seven phosphorothioate linkages at the 3′-terminus of the ssRNAs.
HeLa cells were treated with ssRNAs shown below at concentrations of 1.56 nM, 3.13 nM, 6.25 nM, 12.5 nM, […] and 50 nM using methods described herein. Levels of mRNA were determined using real-time PCR methods as described herein. The IC50 for each ssRNA was determined.

PTEN [5] = test: Liver PTEN mRNA in Balb/c mice, unformulated oligomeric compounds (Example 70); format: in vivo, mouse; conditions: 48 h
Experimental: Six-week-old male Balb/c mice (Jackson Laboratory, Bar Harbor, Me.) were injected intraperitenially with a single dose of 75 mg/kg of one of the three oligomeric compounds above or with saline control. Each dose group consisted of four animals. The mice were sacrificed 48 hours following administration. Livers were collected and PTEN mRNA levels were assessed using real-time PCR and RIBOGREEN® RNA quantification reagent (Molecular Probes, Inc. Eugene, Oreg.) according to standard protocols. PTEN mRNA levels were determined relative to total RNA (using Ribogreen), and normalized to the saline-treated control. Results are listed below as the average % inhibition of PTEN mRNA expression for each treatment group, normalized to saline-injected control.

Substance | % Kd (PTEN [1]) [%] | T1/2 Test 1 [3] [min] | IC50 (PTEN [4]) [nM] | other results
P-TdUfGmUfCmUfCmUfGmGfUmCfCmUfUmAfCmUfUmAeAe (antisense TUGUCUCUGGUCCUUACUUAA; 5'-phosphate, chemical modifications, chemistry not fully specified) [ISIS 435397, modified ssRNA targeting PTEN] | 44 | – | – | IC50 (PTEN [2]): 2 nM; EC50 (human PTEN; antisense strand duplexed with sense strand ISIS 341401, PTEN mRNA, read-out: EC50 (nM) siRNA): 0.4 nM; EC50 (human PTEN; single stranded antisense compound, PTEN mRNA, read-out: EC50 (nM) ssRNA): 2 nM
P-TmoeUfGmUfCmUfCmUfGmGfUmCfCmUfUmAfCmUfUmAeAe (antisense {P}-eT*fU*mGfU*mCfU*mCfU*mGfG*mUfC*mCfU*mU*fA*mC*fU*mU*eA*eA) [A-53286, modified ssRNA targeting PTEN] | 67 | – | – | –
P-USSUfGmUfCmUfCmUfGmGfUmCfCmUfUmAfCmUfUmAeAe (antisense TUGUCUCUGGUCCUUACUUAA; 5'-phosphate, 2'-F/2'-OMe, MOE modifications, chemistry not fully specified) [ISIS 467088, modified ssRNA targeting PTEN] | 50 | – | – | –
P-UfUfGfUfCfUfCmUfGmGfUmCfCmUfUmAfCmUfUmTeTe (antisense UUGUCUCUGGUCCUUACUUTT; 5'-phosphate, modified nucleotides, chemistry not fully specified) [ISIS 409049, modified ssRNA targeting PTEN] | – | 13 | 16.2 | –
P-UfUfGfUfCfUmCmUfGfGmUmCfCfUfUfAfCmUmUmAeAe (antisense UUGUCUCUGGUCCUUACUUAA; sugars from the 5' end fffffmmffmmfffffmmmee, 5' {P}, backbone not given here) [ISIS 408874, modified ssRNA targeting PTEN] | – | 22 | 6 | T1/2 Test 2 [3]: 18 min
P-UfUfGfUfCfUmCmUfGfGmUmCfCfUfUfAfCmUmUmTeTe (antisense UUGUCUCUGGUCCUUACUUTT; 5'-phosphate, modified nucleotides, chemistry not fully specified) [ISIS 409062, modified ssRNA targeting PTEN] | – | 17 | 8.6 | –
P-UmUfGfUfCfUmCmUfGfGmUmCfCfUfUfAfCmUmUmAeAe (antisense UUGUCUCUGGUCCUUACUUAA; sugars from the 5' end mffffmmffmmfffffmmmee, 5' {P}, backbone not given here) [ISIS 408877, modified ssRNA targeting PTEN] | – | 30 | 7 | T1/2 Test 2 [3]: 24 min
P-UmUfGmUfCmUfCmUfGmGfUmCfCmUfUmAfCmUfUmAeAe (antisense UUGUCUCUGGUCCUUACUUAA; sugars from the 5' end mfmfmfmfmfmfmfmfmfmee, 5' {P}, backbone not given here) [ISIS 409044, modified ssRNA targeting PTEN] | – | 240 | 10.5 | T1/2 Test 2 [3]: 258 min
PS2-TmoeUfGmUfCmUfCmUfGmGfUmCfCmUfUmAfCmUfUmAeAe (antisense {PS2}-eT*fU*mGfU*mCfU*mCfU*mGfG*mUfC*mCfU*mU*fA*mC*fU*mU*eA*eA) [A-59890, modified ssRNA targeting PTEN] | 31 | – | – | –
PS-TmoeUfGmUfCmUfCmUfGmGfUmCfCmUfUmAfCmUfUmAeAe (antisense {PS}-eT*fU*mGfU*mCfU*mCfU*mGfG*mUfC*mCfU*mU*fA*mC*fU*mU*eA*eA) [A-59889, modified ssRNA targeting PTEN] | 45 | – | – | –
UfUfGfUfCfUfCmUfGmGfUmCfCmUfUmAfCmUfUmAeAe (UUGUCUCUGGUCCUUACUUAA; sugars from the 5' end ffffffmfmfmfmfmfmfmee, backbone not given here) [ISIS 407047, modified ssRNA targeting PTEN] | – | 6 | 3.5 | –
^meCeTeGe^meCeTeAG^meC^meCT^meCTGGATeTeTeGeAe [ISIS 116847, reference compound] | – | – | – | inhibition of PTEN (PTEN [5]; 75 mg/kg, liver): potent inhibitor of PTEN; % inhibition (PTEN [5]; liver PTEN mRNA, single i.p. dose 75 mg/kg, normalized to saline control): 76%
